In patent US20050020544A1, “Bicyclic CB2 cannabinoid receptor ligands” (priority 2002, published 2005):

Key:
human CB1 receptor [1] = biological target: T1, human CB1 receptor (Homo sapiens, UniProt P21554); assay: biochemical; assay type: binding; settings: CB1 IC50
T1 construct: purchased Perkin Elmer/NEN; host or cells: HEK-293 cells, stably transfected (membranes)
In short: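 Displacement of [3H]CP55940 from membranes of HEK-293 cells stably expressing human CB1, in 50 mM Tris-HCl, 2.5 mM EDTA, 5 mM MgCl2, 1 mg/ml BSA, pH 7.4, 0.1% DMSO; 1.5 h at 30° C, then filtration.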

human CB2 receptor = human CB2 receptor (Homo sapiens, UniProt P34972); assay: Adenylylcyclase assay: forskolin-activated cAMP in CB2 transfected HEK-293 cells; assay type: cell-based; settings: HEK293, read-out: % inhibition at 1 μM; CB2 receptor transfected HEK-293, 1 μM forskolin
Sequence of human CB2 receptor (P34972 whole entry): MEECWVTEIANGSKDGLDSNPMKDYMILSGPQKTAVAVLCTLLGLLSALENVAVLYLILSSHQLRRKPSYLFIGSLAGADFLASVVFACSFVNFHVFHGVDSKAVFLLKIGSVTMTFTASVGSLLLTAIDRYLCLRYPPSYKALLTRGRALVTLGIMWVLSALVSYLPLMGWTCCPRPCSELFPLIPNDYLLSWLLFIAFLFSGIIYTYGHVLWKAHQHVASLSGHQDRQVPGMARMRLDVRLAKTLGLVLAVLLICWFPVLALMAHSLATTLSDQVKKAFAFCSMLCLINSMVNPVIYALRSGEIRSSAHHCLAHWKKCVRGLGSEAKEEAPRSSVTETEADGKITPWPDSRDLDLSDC
Protocol: (§1) Cannabinoids and derivatives bind to G-protein-coupled CB1 and CB2 receptors and exert their activity via the inhibition of adenylylcyclase activity. An adenylylcyclase assay forms a basis for the functional analysis of the compounds by determining their capacity to inhibit or promote forskolin-activated cAMP production. The assay is carried out according to Chin et al. (Chin, C. N. et al., J. Neurochem. 70: 366-73, 1998). Briefly, HEK-293 human kidney cells (ATCC#CRL-1573) stably transfected with either the human CB1 or CB2 receptor (cDNA) were grown in DMEM supplemented with 10% fetal calf serum, 1% Penicillin-Streptomycin and 2 mM L-glutamine. Cells were seeded in 24 wells plate at 5×10^4 cells/well and incubated for 48 hours. Medium was then removed and the adherent cells were washed with PBS. Two hundred μl of serum free medium supplemented with 0.2 mM Ro 20-1724, 0.25% BSA, and 20 mM HEPES was then added to each well. The cells were then activated with 1 μM forskolin in presence of the bicyclic test compounds in concentrations ranging from 10 pM up to 1 μM. The activated cells were then incubated at 37° C. for 20 minutes and the reaction terminated with 1.2 M HCl to a final concentration of 0.1 M. Cells were lyzed by freeze and thaw and the lysate was neutralized with 2 M HEPES, pH 7.5. cAMP was measured in 50 μl aliquots using the [^3H]-cAMP assay system (Amersham).
(§2) This experiment was first performed on CB2 receptor transfected cells.

human CB1 receptor [2] = biological target: T1, human CB1 receptor; assay: Adenylylcyclase assay: forskolin-activated cAMP in CB1 transfected HEK-293 cells; assay type: cell-based
Protocol: as §1, §2

male Sprague-Dawley rats = assay: Chronic constriction nerve injury, neuropathic pain (Von Frey filaments); assay type: in vivo, rat; settings: 4 mg/kg i.p., 15 minutes
Description: The aim of this study was to assess the potential analgesic effects of the novel bicyclic CB2 binding compounds in an animal model of neuropathic pain. A peripheral monopathy was induced in the right hind limb of rats following a chronic constriction of the sciatic nerve (Bennet, G. J. & Xie, Y-K., Pain 33: 87-107, 1988). The development of mechanical allodyna was monitored using an established behavioral test (Von Frey filaments).
Pre-surgery baseline values were ascertained as the mean of 2 pre-surgery values. Once the baseline values had been established, the animals were surgically prepared by constricting the right sciatic nerve with 4 chromic cat gut loose ligatures.
The design was randomized, performed in a masked fashion as to whether drug or vehicle is being given. The animals, male Sprague-Dawley rats (average body weight 240-290 g), were allowed to acclimatize to the behavioral testing equipment prior to testing. On the testing day, the animals, at least six per treatment group, were given i.p. a single dose of one of the test compounds in a volume of 2.5 ml/kg. Fifteen minutes later, a series of Von Frey filaments (pre-calibrated prior to testing) were applied to the plantar surface of the hind paw, from below. The filaments were applied in ascending order starting with the weakest force and the withdrawal threshold for both the ipsilateral and contralateral hind paws was evaluated. Each filament was indented on the mid-plantar surface of the foot to the point where it just starts to bend; this is repeated approximately 8-10 times per filament at a frequency of approximately 1 Hz. The withdrawal threshold is defined as being the lowest force of two or more consecutive Von Frey's filaments to elicit a reflex withdrawal response (i.e. a brief paw flick) and is measured in grams.
The results are expressed as % increase in the threshold of response to Von Frey's filaments in the test compound treated group versus the vehicle treated animals and per definition the vehicle treated group yields a null baseline value. The black column represents the morphine treated animals (4 mg/kg), the gray and the dotted column bars represent two doses of compound A (0.5 and 1 mg/kg respectively).

ICR male mice [3] = assay: Development of tolerance on repeated administration, tail flick model; settings: 5 mg/kg twice daily i.p.
Protocol: (§3) ICR male mice (20-30 g average body weight, Harlan, Israel) were injected i.p. at the volume dose of 5 ml/kg. Each treatment group contained at least 6 animals. Morphine HCl was used as positive control at the final dose of 5 mg/kg. Its vehicle, saline, was also included as control. The test compounds were dissolved in CREMOPHOR EL®:ethanol and diluted 1:20 in saline prior to injection, this second type of vehicle was also included as negative control. The final dose injected varied from 0.1 to 10 mg/kg. At predetermined time points after treatment injection, the animals were placed in the tail flick system (Socrel, model DS 20). Animals were gently held while their tails were located above the photoelectric cell. The tails were then illuminated (21V) at 2 cm from the distal tip and the latency time, measured in seconds, was recorded in duplicates. At the end of the study, the animals were euthanized by i.p. injection of 100 mg/kg sodium pentobarbitone.
Tolerance was assessed in the tail flick model above described. Briefly, the test compounds were administered twice daily i.p. for up to 10 days to groups of 10 animals each. The noxious pain threshold was measured as previously described in example 13 thirty minutes after the first drug administration on days 1, 4, 8 and 10. Results are expressed as mean latency time till the animal flicked its tail±SE. The differences between the latency times or the % of animals showing analgesia among various treatment groups was analyzed by analysis of variance (ANOVA) followed by post-hoc Tukey's test (for latency) or Fisher's exact test (for % animals). A value of p<0.05 is considered to be statistically significant.

ICR male mice [4] = assay: Tail flick model for acute peripheral pain, i.p.; assay type: in vivo, mouse; settings: 5 mg/kg i.p.
Protocol: as §3
Two parameters were used to analyze the results, the latency time and the % of animals showing analgesia. […] The results in both cases are expressed as mean±SE. The differences between the latency times or the % of animals showing analgesia among various treatment groups was analyzed by analysis of variance (ANOVA) followed by post-hoc Tukey's test (for latency) or Fisher's exact test (for % animals). A value of p<0.05 is considered to be statistically significant.

Male Sprague Dawley rats = assay: Inflammatory pain: carrageenan paw edema in rats, thermal and mechanical stimuli; assay type: in vivo, rat; settings: 5 mg/kg, three hours
Protocol: Male Sprague Dawley rats (200 g average body weight, Harlan, Israel) are transiently sedated by placement on dry ice for the duration of the injections. […] Before induction of inflammatory pain and three hours after injection, the animals reactions to pain stimuli were tested in two systems. The first stimulus was thermal and assessed by the Plantar Test according to Hargreaves, using Ugo Basile Model 7370. The scale was set to an intensity of 50 arbitrary units. The latency time till the animal lift a paw as a reaction to the thermal stimulus was recorded for both the inflamed and non-inflamed hind paws. The second stimulus was mechanical (tactile) and assessed using a Dynamic Plantar Sesthesiomether (Ugo Basile Model 73400-002).
The results are measured as the differences between the two hind paws at time 0 and 3 hours both as ALT, for the latency time in the thermal part of the study, and as ΔForce, for the mechanical part of the study.

T1 sequence (P21554 whole entry): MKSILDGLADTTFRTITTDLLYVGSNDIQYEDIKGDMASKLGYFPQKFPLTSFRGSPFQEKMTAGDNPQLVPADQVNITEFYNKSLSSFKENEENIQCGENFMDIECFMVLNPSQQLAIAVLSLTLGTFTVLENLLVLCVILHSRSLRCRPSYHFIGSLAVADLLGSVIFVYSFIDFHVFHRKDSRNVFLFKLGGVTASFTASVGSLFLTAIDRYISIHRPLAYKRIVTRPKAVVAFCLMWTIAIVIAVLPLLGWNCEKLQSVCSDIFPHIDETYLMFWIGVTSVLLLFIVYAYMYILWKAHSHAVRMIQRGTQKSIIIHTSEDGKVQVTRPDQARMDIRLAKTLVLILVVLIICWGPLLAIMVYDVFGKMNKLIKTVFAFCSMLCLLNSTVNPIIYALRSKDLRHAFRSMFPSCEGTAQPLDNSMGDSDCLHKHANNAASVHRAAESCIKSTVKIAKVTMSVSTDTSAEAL

| SMILES | IC50 (human CB1 receptor [1]) | inhibition at 1 µM (human CB2 receptor) | IC50 (human CB1 receptor [2]) | inhibition at 1 µM (human CB1 receptor [2]; HEK293, CB1 transfected HEK-293, 1 μM forskolin, read-out: maximal inhibition at 1 μM) | increase in pain threshold (Von Frey) versus vehicle, ipsilateral hind paw (male Sprague-Dawley rats) | % of animals showing increased analgesia (ICR male mice [3]; day 10) | latency time (ICR male mice [3]; day 10) | % of animals showing increased analgesia (ICR male mice [3]; day one) | latency time (ICR male mice [3]; day one) | latency time (ICR male mice [4]; 30 minutes) | % animals showing analgesia (ICR male mice [4]; 90 minutes) | latency time (ICR male mice [4]; 90 minutes) | latency time (ICR male mice [4]; five and a half hour) | % animals showing increased analgesia (ICR male mice [4]; five and an half hours) | % animals showing increased analgesia (ICR male mice [4]; half-an hour) | latency time (ICR male mice [4]; two and a half hour) | ΔForce (tactile stimulus) (Male Sprague Dawley rats) | ΔLT (thermal stimulus) (Male Sprague Dawley rats) |
| --- | --- | --- | --- | --- | --- | --- | --- | --- | --- | --- | --- | --- | --- | --- | --- | --- | --- | --- |
| CCCCCCC(C)(C)c1cc(O)c2c(c1)OC(C)(C)[C@@H]1CC=C(CO)C[C@@H]21 [HU-210, 7-hydroxy-Δ^6-tetrahydrocannabinol-1,1-dimethyl-heptyl, reference compound] | 0.39 nM | 50% | 0.35 nM | 73% |  |  |  |  |  |  |  |  |  |  |  |  |  |  |
| CN1CC[C@]23c4c5ccc(O)c4O[C@H]2[C@@H](O)C=C[C@H]3[C@H]1C5 [Morphine, reference compound] |  |  |  |  | 91% | 30% | 5.8 s | 80% | 7.5 s | 7.5 s | about 40% | 3.9 s | 3.6 s | 17% | 88% | 3.1 s | 2.7 grams | 0 s |
